Assay [1] deals with Ba/F3-FL-EGFR (del19-E746-A750/C797S) (Homo sapiens, UniProt P00533, DEL746-750/C797S, cells depend on it). Briefly: Cell proliferation inhibition, CellTiter-Glo. Conditions: 72 hours, read-out: Cell half-maximal inhibition concentration IC50 Ba/F3-FL-EGFR (del19-E746-A750/C797S). The format is cell-based. The procedure: AdenosineTri-Phosphate (ATP) is an energy carrier shared by various life activities in nature, and is the smallest unit of energy storage and transfer. The CellTiter-Glo™ living cell assay kit uses luciferase as a detector, and luciferase requires the participation of ATP in the process of luminescence. CellTiter-Glo™ reagent is added to a cell culture medium, and the luminescence value is measured. The light signal is directly proportional to the amount of ATP in the system, and ATP is positively correlated with the number of living cells. Therefore, cell proliferation can be detected by detecting ATP content with the CellTiter-Glo kit. In this assay, the cell lines were Ba/F3-FL-EGFR (L858R/T790M/C797S), Ba/F3-FL-EGFR (WT), Ba/F3-FL-EGFR (L858R), Ba/F3-FL-EGFR (del19-S752-I759), Ba/F3-FL-EGFR (del19-E746-A750/T790M/C797S), Ba/F3-FL-EGFR (L858R/T790M), Ba/F3-FL-EGFR (del19-E746-A750/T790M), Ba/F3-TEL-EGFR (L858R/C797S), Ba/F3-FL-EGFR (del19-E746-A750/C797S) stably transfected cell lines.
The cell lines were cultured in an incubator at 37° C. and 5% CO2. The cells were periodically passaged, and cells in logarithmic growth phase were taken for plating.
a) DMSO was used to prepare a 10 mM solution of the compound to be tested, and then the compound to be tested was diluted to 0.3 or 1 mM with DMSO.
b) Preparation of 1000× compound storage plate (tube): DMSO was used to dilute by 3-fold gradient from the highest concentration to the lowest concentration, with a total of 9 concentrations.
c) Preparation of 20× compound working solution: 49 μL of cell culture medium was added to a flat-bottomed 96-well transparent drug plate, and 1 μL of compound was pipetted from the 1000× compound storage plate to the cell culture medium of the 96-well transparent drug plate. 1 μL of DMSO was added to the vehicle control. After adding compound or DMSO, the well content was mixed to uniform by aspiration and expelling with pipette.
a) Cells were stained with trypan blue and viable cells were counted. The cell viability rate was required to be above 90%.
b) 95 μL of cell suspension (2000 cells/well) was added to each well of the compound detection cell plate, and culture medium without cells (containing 0.1% DMSO) was added to the Min control well.
c) Dosing in the compound detection cell plate: 5 μL of 20× compound working solution was added to the cell culture plate. 5 μL of DMSO-cell culture mixture was added to the Max control. The final concentration of DMSO was 0.1%.
d) The culture plate was incubated in an incubator at 37° C., 5% CO2 for 72 hours.
Cell proliferation inhibition rate (Inhibition Rate) data were processed using the following formula:
Inhibition Rate (Inh %)=100−(RLUDrug−RLUMin)/(RLUMax−RLUMin)*100%.
The inhibition rates corresponding to different concentrations of compounds were calculated, and then GraphPad Prism software was used to draw the inhibition rate curve and the IC50 value was calculated.
A general note: ATP-based viability assays read luminescence as a measure of living cells.

In the next assay the target is T1, CYP3A4 (Homo sapiens, UniProt P08684).
T1 construct: from tissue; host or cells: human liver microsomes
Kind of assay: Cytochrome P450 isoenzyme inhibition, human liver microsomes. It is filed as in vitro ADME. Conditions: read-out: Cytochrome P450 isoenzyme inhibitory concentration CYP3A4. The procedure: (§1) The purpose of this study was to determine the inhibitory effect of test compounds on the activity of human liver microsomal cytochrome P450 isoenzymes (CYP1A2, CYP2C9, CYP2C19, CYP2D6 and CYP3A4).
(§2) Working solutions (100×final concentration) with concentrations of 5.00, 1.50, 0.500, 0.150, 0.0500, 0.0150, and 0.00500 mM were prepared by gradient dilution of the test compound (10.0 mM), while working solutions of each positive inhibitor and its specific substrate mixtures of P450 isozymes (CYP1A2, CYP2C9, CYP2C19, CYP2D6, and CYP3A4) were prepared; human liver microsomes stored in a refrigerator below −60° C. were thawed on ice; after all the human liver microsomes were thawed, the human liver microsomes were diluted with Potassium phosphate buffer (PB) to prepare a certain concentration of working solution (0.253 mg/ml).
(§3) First, 20.0 μL of the substrate mixture was added to a reaction plate (20.0 μL of PB was added to the Blank well), then 158 μL of human liver microsomal working solution was added to the reaction plate, and the reaction plate was placed on ice for use; at this time, 2.00 μL of each concentration of the test compound (N=1) and specific inhibitor (N=2) were added to the corresponding wells, and to the group without inhibitor (test compound or positive inhibitor) was added the corresponding organic solvent as control samples (1:1 DMSO:MeOH for the control sample of the test compound, and 1:9 DMSO:MeOH for all the positive control samples); after pre-incubation in a water bath at 37° C. for 10 min, 20.0 μL of cofactor (NADPH) solution was added to the reaction plate, and the reaction plate was incubated in a water bath at 37° C. for 10 min; The reaction was terminated by adding 400 μL of pre-cooled acetonitrile solution (containing 200 ng/mL Tolbutamide and Labetalol internal standard); the reaction plate was shaken on a shaker for 10 min; then centrifuged at 4000 rpm at 4° C. for 20 min; 200 μL of the supernatant was added to 100 μL of water to dilute the samples; and the plate was sealed, shaken for 10 min to mix well, and then analyzed by LC/MS/MS.
(§4) The rate of production of metabolites of each probe substrate was used to reflect the activity of each CYP isozyme. The activity of each isozyme in the solvent control incubation system without test article or positive inhibitor was set to be 100%, and the rate of production of metabolites of the probe substrate with different concentrations of test article or positive inhibitor was divided by the rate of production of metabolites of the solvent control samples, and then multiplied by 100% as the percentage of residual activity of each isozyme. The IC50 values of the test article and each positive inhibitor were calculated by nonlinear regression analysis using three or four parameters in XL fit software with the percentage of residual activity as the vertical coordinate and the inhibitor concentration as the horizontal coordinate. The IC50 values were labeled as “>50 μM” when the IC50 fitted by XL fit software was greater than the highest administered concentration (50 μM) or when the IC50 could not be fitted.
For orientation: Liver microsomes are vesicles of endoplasmic reticulum, rich in cytochrome P450 enzymes.

The target in the next assay is T2, CYP1A2 (Homo sapiens, UniProt P05177).
T2 construct: from tissue; host or cells: human liver microsomes
Described as above. It is filed as in vitro ADME. Conditions: read-out: Cytochrome P450 isoenzyme inhibitory concentration CYP1A2. The procedure: as §1, §2, §3, §4

A further assay deals with T3, CYP2C9 (Homo sapiens, UniProt P11712).
T3 construct: from tissue; host or cells: human liver microsomes
Described as above. It is filed as in vitro ADME. Conditions: read-out: Cytochrome P450 isoenzyme inhibitory concentration CYP2C9. The procedure: as §1, §2, §3, §4

Ba/F3-FL-EGFR (del19-E746-A750/C797S), sequence (P00533 with tags, fused parts or gaps DEL746-750/C797S): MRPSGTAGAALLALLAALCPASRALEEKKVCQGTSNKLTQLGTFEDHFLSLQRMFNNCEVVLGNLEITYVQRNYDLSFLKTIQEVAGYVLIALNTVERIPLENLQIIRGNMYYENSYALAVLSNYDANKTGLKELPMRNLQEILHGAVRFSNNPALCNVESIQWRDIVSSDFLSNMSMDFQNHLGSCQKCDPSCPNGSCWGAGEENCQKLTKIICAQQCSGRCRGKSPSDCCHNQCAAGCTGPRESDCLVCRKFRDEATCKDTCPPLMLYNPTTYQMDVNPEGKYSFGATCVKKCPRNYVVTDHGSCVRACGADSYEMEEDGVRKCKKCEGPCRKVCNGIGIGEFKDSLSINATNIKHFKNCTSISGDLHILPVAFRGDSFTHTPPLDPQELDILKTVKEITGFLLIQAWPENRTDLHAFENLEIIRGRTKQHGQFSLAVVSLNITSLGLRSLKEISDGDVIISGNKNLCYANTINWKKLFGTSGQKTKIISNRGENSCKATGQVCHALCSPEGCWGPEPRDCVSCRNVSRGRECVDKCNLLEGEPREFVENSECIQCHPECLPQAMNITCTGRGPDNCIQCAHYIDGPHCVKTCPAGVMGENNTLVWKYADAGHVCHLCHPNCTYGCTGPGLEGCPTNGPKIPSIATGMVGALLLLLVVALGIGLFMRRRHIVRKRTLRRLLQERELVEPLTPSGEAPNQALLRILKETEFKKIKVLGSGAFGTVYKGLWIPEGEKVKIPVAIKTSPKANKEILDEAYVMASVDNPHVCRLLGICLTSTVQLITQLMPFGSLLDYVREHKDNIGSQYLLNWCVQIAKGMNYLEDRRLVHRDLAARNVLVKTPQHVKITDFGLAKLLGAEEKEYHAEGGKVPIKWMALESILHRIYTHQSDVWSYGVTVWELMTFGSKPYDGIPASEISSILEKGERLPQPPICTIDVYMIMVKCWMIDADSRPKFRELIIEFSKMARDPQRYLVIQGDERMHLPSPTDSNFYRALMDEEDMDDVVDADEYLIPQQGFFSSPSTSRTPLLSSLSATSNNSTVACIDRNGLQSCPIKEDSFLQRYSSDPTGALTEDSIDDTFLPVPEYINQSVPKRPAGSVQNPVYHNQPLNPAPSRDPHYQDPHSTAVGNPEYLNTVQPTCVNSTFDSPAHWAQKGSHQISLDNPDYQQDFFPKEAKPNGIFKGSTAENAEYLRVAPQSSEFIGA
T3 sequence (P11712 whole entry): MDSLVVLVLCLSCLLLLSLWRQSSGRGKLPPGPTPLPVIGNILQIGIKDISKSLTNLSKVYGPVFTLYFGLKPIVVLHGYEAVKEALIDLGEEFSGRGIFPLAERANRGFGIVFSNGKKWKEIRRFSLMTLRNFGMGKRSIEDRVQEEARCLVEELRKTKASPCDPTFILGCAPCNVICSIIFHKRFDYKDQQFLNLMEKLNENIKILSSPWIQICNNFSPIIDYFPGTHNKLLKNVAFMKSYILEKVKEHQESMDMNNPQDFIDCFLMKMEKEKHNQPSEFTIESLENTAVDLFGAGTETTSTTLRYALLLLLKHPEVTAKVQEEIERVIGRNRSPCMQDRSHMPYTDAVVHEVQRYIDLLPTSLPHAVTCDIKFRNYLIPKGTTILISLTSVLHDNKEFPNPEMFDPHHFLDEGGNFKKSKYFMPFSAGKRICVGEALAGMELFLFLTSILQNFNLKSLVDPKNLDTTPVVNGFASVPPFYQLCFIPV
T2 sequence (P05177 whole entry): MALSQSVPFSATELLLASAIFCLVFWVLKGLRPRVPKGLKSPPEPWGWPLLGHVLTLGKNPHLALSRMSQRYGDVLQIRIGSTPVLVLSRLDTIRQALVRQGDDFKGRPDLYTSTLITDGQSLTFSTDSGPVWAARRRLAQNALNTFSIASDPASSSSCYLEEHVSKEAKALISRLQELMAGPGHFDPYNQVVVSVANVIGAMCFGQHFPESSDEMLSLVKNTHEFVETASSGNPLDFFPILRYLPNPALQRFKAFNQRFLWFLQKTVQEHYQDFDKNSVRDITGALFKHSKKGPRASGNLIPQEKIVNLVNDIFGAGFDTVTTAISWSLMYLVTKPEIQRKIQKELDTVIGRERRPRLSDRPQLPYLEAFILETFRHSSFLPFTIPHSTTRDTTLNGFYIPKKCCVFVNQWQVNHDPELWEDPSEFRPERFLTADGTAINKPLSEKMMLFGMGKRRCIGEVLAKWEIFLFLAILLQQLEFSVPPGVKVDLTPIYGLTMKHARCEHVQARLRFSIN
T1 sequence (P08684 whole entry): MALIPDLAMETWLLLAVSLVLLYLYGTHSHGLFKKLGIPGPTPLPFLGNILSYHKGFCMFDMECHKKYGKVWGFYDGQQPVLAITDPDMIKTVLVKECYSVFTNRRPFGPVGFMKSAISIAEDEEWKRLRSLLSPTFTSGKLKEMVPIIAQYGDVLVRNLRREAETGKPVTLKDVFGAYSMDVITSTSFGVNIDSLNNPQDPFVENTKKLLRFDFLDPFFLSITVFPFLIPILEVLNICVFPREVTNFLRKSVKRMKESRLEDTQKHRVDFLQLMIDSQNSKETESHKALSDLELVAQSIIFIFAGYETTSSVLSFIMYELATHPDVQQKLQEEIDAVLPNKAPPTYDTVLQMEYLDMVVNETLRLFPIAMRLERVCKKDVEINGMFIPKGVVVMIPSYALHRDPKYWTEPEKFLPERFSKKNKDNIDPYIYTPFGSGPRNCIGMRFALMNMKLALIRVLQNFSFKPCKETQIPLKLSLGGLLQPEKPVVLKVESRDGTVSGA

As for `Cc1cc2cc(n1)-c1cnn(C)c1OC[C@H]1CC[C@H](C1)CN1/C(=N/C2=O)Nc2ccc(N=S(C)(C)=O)cc21` (single isomer, unassigned) [WX-027A], the GI50 in assay [1] came to 0.0047 µM. The IC50 on CYP3A4 is 20 µM; at CYP1A2, more than 50 µM; on CYP2C9, 14 µM.
As to `Cc1cc2cc(n1)-c1cnn(C)c1OCCC[C@@H](C)CN1/C(=N/C2=O)Nc2ccc(N=S(C)(C)=O)c(Cl)c21` [WX-019], in assay [1], the GI50 is 0.0065 µM. In addition, the IC50 at CYP3A4 was more than 50 µM; on CYP1A2, more than 50 µM; at CYP2C9, 31 µM.

The record behind these values is patent publication US20250084097A1, “MACROCYCLIC AMIDE COMPOUNDS AND APPLICATION THEREOF” (Medshine Discovery Inc., priority 2021, published 2025).
